Data set [1] in a line: In vitro dissolution-permeation of aripiprazole forms on μFLUX. The format is in vitro ADME. The protocol:
In the case of buccal drug delivery, the donor chamber represented the oral cavity, the artificial membrane the oral mucosa, while the acceptor chamber represented the blood circulation. At first […] of n-dodecane was dribbled on the membrane surface, then 20 mL of pH 6.8 phosphate buffer was added into the donor chamber, and 20 mL of sink buffer was added into the acceptor chamber. […] Samples equivalent to 20 mg of ARP were placed in the donor chamber. Both chambers were stirred at 200 rpm at room temperature, using stirring devices 87 and 89. The temperature was controlled via elements 91. In both chambers the API concentration was followed by UV-spectrophotometry at 252 nm. Suitable probes for the spectroscopic measurements (not shown in FIG. 12) were introduced through openings 93 and 95.
The flux across the membrane was calculated using the following equation:
[formula] where the flux (J) of a drug through the membrane is defined as the amount (n) of drug crossing a unit area (A) perpendicular to its flow per unit time (t).
The API concentration profiles in the donor and acceptor vessels (1000 mg/L max concentration, 0.025 mol/dm^3 KH2PO4 buffer in the donor compartment, n-dodecane membrane, sink buffer as acceptor, 150 rpm, 25° C.) are presented, respectively, in FIGS. 13A and 13B.

A further data set can be described thus: physchem. The settings on record: aqueous buffer.
Data set [2] in a line: Permeability in concentric nested donor/receiver arrangement with PAMPA membrane. The format is in vitro ADME. The conditions noted are these: in situ UV fiber optic, read-out: Peff (effective permeability coefficient). Background: PAMPA measures passive passage across an artificial lipid membrane.
Procedure: A concentric nested arrangement was used to study permeability of several compounds. The membrane was a PAMPA membrane and experiments were performed with and without Acceptor Sink Buffer™ on the acceptor sink side. Concentrations measurements were taken using in situ UV fiber optic system Pion Spectra™.

In brackets after ≈: the same amount, converted by molar mass.

Consider three molecules from US10228358B2, “Apparatus and method for the assessment of concentration profiling and permeability rates” (Pion Inc., priority 2015, dated 2019).

The term solubility denotes the dissolved amount per volume that the medium holds. High values mean a readily soluble substance, low ones a poorly soluble substance.

Procedure for physchem: In the case of buccal drug delivery, the donor chamber represented the oral cavity, the artificial membrane the oral mucosa, while the acceptor chamber represented the blood circulation. At first 75 mL of n-dodecane was dribbled on the membrane surface, then 20 mL of pH 6.8 phosphate buffer was added into the donor chamber, and 20 mL of sink buffer was added into the acceptor chamber. […] Both chambers were stirred at 200 rpm at room temperature, using stirring devices 87 and 89. The temperature was controlled via elements 91. In both chambers the API concentration was followed by UV-spectrophotometry at 252 nm. Suitable probes for the spectroscopic measurements (not shown in FIG. 12) were introduced through openings 93 and 95.
The in vitro dissolution-absorption studies were carried out using a μFLUX™ (Pion Inc., Billerica Mass., U.S.A.), a schematic diagram of which is shown in FIG. 12. The apparatus included a donor and an acceptor chamber (20 mL volume) separated by an artificial membrane (PVDF, polyvinylidenefluoride, 0.45 μm, 1.54 cm^2). In the case of oral drug delivery, the donor chamber represents the gastrointestinal tract, while the acceptor chamber represents the blood circulation. […]

As to `O=C1CCc2ccc(OCCCCN3CCN(c4cccc(Cl)c4Cl)CC3)cc2N1` [ARP, aripiprazole], in data set [1] (30-60 min, donor chamber), the “API dissolved during the biorelevant time” value is recorded as 1.5%. In addition, in data set [1] (n-dodecane membrane, sink buffer acceptor), the “flux during the first 25 min” value was 16 μg/h×cm^2. The molecule further returned a solubility in “physchem” of 30 µg/mL (≈ 66.9 µM).
Consider `CC(=O)Oc1ccccc1C(=O)O` [Aspirin], for which, in data set [2], the Papp is 331 ×10⁻⁶ cm/s.
Same read-out and setting: then `Cn1c(=O)c2c(ncn2C)n(C)c1=O` [Caffeine], with 257 ×10⁻⁶ cm/s.
